From paper PMC3021963 (ChemMedChem, 2010)

How the values were obtained:
Type in all cases: biochemical
MbtI [1] = target: T1, MbtI (Mycobacterium tuberculosis, UniProt P9WFX1); assay: continuous fluorescence assay of MbtI; conditions: for Fluorescence Assay Hill: Table 1, Hill slope of concentration-response plot
MbtI [2] = target: T1, MbtI; assay: HPLC end-point assay of MbtI; conditions: for HPLC Assay Hill: Table 1, Hill slope of concentration-response plot
MbtI [3] = target: T1, MbtI
[4] = IC50, Table 2, class II diarylsulfones
[5] = Table 3, class III benzimidazole-2-thiones
[6] = Table 3, class III benzimidazole-2-thiones, synthetically prepared compounds
[7] = Table 2, class II diarylsulfones

T1 sequence (P9WFX1 whole entry, looked up): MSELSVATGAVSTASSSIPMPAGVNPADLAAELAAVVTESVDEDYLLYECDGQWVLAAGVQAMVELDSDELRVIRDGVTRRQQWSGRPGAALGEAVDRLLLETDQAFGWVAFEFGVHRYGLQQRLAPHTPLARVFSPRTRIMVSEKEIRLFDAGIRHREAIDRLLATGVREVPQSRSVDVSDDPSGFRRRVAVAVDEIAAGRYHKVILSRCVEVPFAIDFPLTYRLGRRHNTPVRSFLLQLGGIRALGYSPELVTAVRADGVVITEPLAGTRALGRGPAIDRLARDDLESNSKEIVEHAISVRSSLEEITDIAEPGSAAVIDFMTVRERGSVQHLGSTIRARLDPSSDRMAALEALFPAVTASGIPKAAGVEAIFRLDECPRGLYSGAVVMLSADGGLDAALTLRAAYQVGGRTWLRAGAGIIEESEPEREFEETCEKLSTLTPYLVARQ

## NS(=O)(=O)c1cccc(S(=O)(=O)c2ccc(Cl)cc2)c1 [Compound 26, 3-(4-Chlorophenylsulfonyl)benzenesulfonamide]
MbtI [1]
  MbtI inhibition (in words): complete loss of activity
MbtI [1]; [4]
  IC50: > 200 µM

## CC(=O)n1c(=S)[nH]c2ccccc21 [Compound 4, 1-Acetylbenzimidazole-2-thione]
MbtI [2]
  IC50: 5.16 ± 0.49 µM
  HPLC Assay Hill: 1.23
MbtI [3]
  Ki: 9.7 µM
MbtI [3]; noncompetitive inhibition model
  α value: 1
MbtI [3]; with respect to chorismate
  mode of inhibition: noncompetitive inhibition
MbtI [1]
  Fluorescence Assay Hill: 1.71
MbtI [1]; [5]
  Hill Slope: 1.00

## NS(=O)(=O)c1cccc(S(=O)(=O)c2ccccc2)c1 [Compound 27, 3-(Phenylsulfonyl)benzenesulfonamide]
MbtI [1]
  MbtI inhibition (in words): complete loss of activity
MbtI [1]; [4]
  IC50: > 200 µM

## O=S(=O)(NCc1ccccc1)c1cccc(S(=O)(=O)c2ccc(Cl)c(Cl)c2)c1 [Compound 30, N-Benzyl-3-(3,4-dichlorophenylsulfonyl)benzenesulfonamide]
MbtI [1]; [4]
  IC50: > 200 µM

## CC(=O)N1C(=O)Cc2ccccc21 [Compound 43, 1-Acetyl-2-oxindole]
MbtI [1]
  MbtI inhibition (in words): completely inactive

## S=c1[nH]c2ccccc2[nH]1 [Compound 34, benzimidazole-2-thione]
MbtI [1]
  change in potency relative to parent compound 4: six- to nine-fold decreases in potency
MbtI [1]; [5]
  Hill Slope: 0.90

## CC(=O)n1cnc2ccccc21 [Compound 44, 1-Acetylbenzimidazole]
MbtI [1]
  MbtI inhibition (in words): completely inactive

## CC(=O)n1c(=S)[nH]c2cc(C)ccc21 [Compound 41, 1-Acetyl-5/6-methylbenzimidazole-2-thione]
MbtI [1]
  change in potency relative to parent compound 4: no impact on potency was observed
MbtI [1]; [5]
  Hill Slope: 1.20
MbtI [1]; [6]
  IC50: 7.6 ± 0.4 µM

## NS(=O)(=O)c1cccc(S(=O)(=O)c2ccc(Cl)c(Cl)c2)c1 [Compound 8, 3-(3,4-Dichlorophenylsulfonyl)benzenesulfonamide]
MbtI [2]
  IC50: 49.2 ± 11.6 µM
  HPLC Assay Hill: 0.7
MbtI [1]; [4]
  IC50: 35 µM
MbtI [1]
  Fluorescence Assay Hill: 0.85
MbtI [1]; [7]
  Hill Slope: 0.85

## CNS(=O)(=O)c1cccc(S(=O)(=O)c2ccccc2)c1 [Compound 28, N-Methyl-3-(phenylsulfonyl)benzenesulfonamide]
MbtI [1]; [4]
  IC50: > 200 µM

## Nc1ccc(S(=O)(=O)c2ccc(N)cc2)cc1 [Compound 33, 4,4′-diaminodiphenylsulfone, reference compound]
MbtI [1]; [4]
  IC50: 118 ± 19 µM

## CSc1nc2ccccc2[nH]1 [Compound 46, 2-thiomethylbenzimidazole]
MbtI [1]
  MbtI inhibition (in words): completely inactive
MbtI [1]; [6]
  IC50: > 200 µM

## CC(=O)n1c(=S)oc2ccccc21 [Compound 42, 1-Acetylbenzoxazole-2-thione]
MbtI [1]
  change in potency relative to parent compound 4: about twofold less potent
MbtI [1]; [5]
  Hill Slope: 1.10
MbtI [1]; [6]
  IC50: 21.8 ± 1.4 µM

## CNS(=O)(=O)c1cccc(S(=O)(=O)c2ccc(Cl)c(Cl)c2)c1 [Compound 29, 3-(3,4-Dichlorophenylsulfonyl)-N-methylbenzenesulfonamide]
MbtI [1]; [4]
  IC50: > 200 µM

## Cn1c(=S)[nH]c2ccccc21 [Compound 40, N-methylbenzimidazole-2-thione]
MbtI [1]
  change in potency relative to parent compound 4: six- to nine-fold decreases in potency
MbtI [1]; [5]
  Hill Slope: 1.20

## O=S(=O)(c1cccc(S(=O)(=O)N2CCOCC2)c1)c1ccc(Cl)c(Cl)c1 [Compound 31, N-[3-(3,4-Dichlorophenylsulfonyl)phenylsulfonyl]morpholine]
MbtI [1]; [7]
  IC50: > 200 µM

## CC(=O)NS(=O)(=O)c1cccc(S(=O)(=O)c2ccc(Cl)c(Cl)c2)c1 [Compound 32, N-[3-(3,4-Dichlorophenylsulfonyl)phenylsulfonyl]acetamide]
MbtI [1]
  MbtI inhibition (in words): completely inactive
MbtI [1]; [4]
  IC50: > 200 µM

## CC(=O)n1cc[nH]c1=S [Compound 47, 1-Acetylimidazole-2-thione]
MbtI [1]
  MbtI inhibition (in words): abolished all activity

## CC(=O)n1c(=O)[nH]c2ccccc21 [Compound 45, 1-Acetylbenzimidazole-2-one]
MbtI [1]
  MbtI inhibition (in words): completely inactive
